Values of other authors, collected in patent US6538179B1, “Enhanced starch biosynthesis in seeds” (Monsanto Technology LLC, priority 1990, dated 2003).

Target: plant ADPGPP (Solanum tuberosum, UniProt P23509+Q00081)
Sequence (Q00081 whole entry): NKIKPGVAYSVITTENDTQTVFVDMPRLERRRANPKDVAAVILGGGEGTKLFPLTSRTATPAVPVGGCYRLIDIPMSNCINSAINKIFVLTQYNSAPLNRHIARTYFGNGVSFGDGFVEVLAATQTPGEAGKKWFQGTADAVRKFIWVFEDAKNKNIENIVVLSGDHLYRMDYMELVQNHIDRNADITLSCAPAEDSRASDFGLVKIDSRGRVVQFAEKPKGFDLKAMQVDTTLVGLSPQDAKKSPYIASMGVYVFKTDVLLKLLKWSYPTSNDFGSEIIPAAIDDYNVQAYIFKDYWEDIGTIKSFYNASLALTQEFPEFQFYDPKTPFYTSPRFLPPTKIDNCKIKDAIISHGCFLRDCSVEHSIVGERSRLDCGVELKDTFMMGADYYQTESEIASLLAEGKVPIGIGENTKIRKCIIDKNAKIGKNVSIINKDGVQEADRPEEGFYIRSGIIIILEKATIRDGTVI
Sequence (P23509 73-521): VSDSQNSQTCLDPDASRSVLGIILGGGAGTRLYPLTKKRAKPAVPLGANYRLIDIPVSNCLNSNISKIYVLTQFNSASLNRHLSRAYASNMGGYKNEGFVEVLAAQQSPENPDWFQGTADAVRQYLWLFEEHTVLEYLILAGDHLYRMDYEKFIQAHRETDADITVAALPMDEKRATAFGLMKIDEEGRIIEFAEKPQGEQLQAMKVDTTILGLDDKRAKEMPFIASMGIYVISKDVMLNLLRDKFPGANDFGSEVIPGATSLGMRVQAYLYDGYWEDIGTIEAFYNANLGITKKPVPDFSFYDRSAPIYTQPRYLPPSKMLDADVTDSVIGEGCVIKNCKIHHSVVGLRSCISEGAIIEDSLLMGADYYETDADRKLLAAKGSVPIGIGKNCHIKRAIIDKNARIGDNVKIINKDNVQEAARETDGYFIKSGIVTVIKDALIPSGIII

Row | Compound | IC50 (read-out: I0.5, inhibition of ADPGPP by Pi) | EC50 (activation of ADPGPP by 3-PGA, read-out: A0.5)
1 | O=P(O)(O)O [Pi, inorganic phosphate] | 45 µM | –
2 | O=C(O)[C@H](O)COP(=O)(O)O [3-PGA, 3-phosphoglycerate] | – | 75 µM
